In ChEMBL document CHEMBL1128242, “Polyiodinated triglyceride analogs as potential computed tomography imaging agents for the liver” (J Med Chem, 1995):
Several values for one entry are separate records, joined by “and”; a condition that tells them apart may be missing. Equal values may be shown once.

How the values were obtained:
Rattus norvegicus [1] = test: Analysis of lipid-soluble radioactivity in liver 24 hour after iv administration of [125I]-labeled 2-Oleoyl 1,3-disubstituted Triacylglycerols and represented as % CHCl3/CH3OH from rat; assay type: ADME, organism-based; details: in vivo
Rattus norvegicus [2] = test: Distribution of radioactivity was determined in liver at 24 hr after intravenous administration of 1,3-Disubstituted Triacylglycerols in rats; assay type: ADME, organism-based; details: in vivo
Rattus norvegicus [3] = test: Distribution of radioactivity was determined in liver at 30 min after intravenous administration of 1,3-Disubstituted Triacylglycerols in rats; assay type: ADME, organism-based; details: in vivo, 0.5 h
Rattus norvegicus [4] = test: Distribution of radioactivity was determined in kidney at 24 hr after intravenous administration of [125I]-labeled 2-oleoglycerol 1,3-Bis-[omega-(3-amino-2,4,6-triiodophenyl)alkanoates] in rats; assay type: ADME, organism-based; details: in vivo
Rattus norvegicus [5] = test: Polyacrylamide Gel Electrophoresis (PAGE) to determined the concentration of high density lipoprotein (HDL) in rats after iv administration of [125I]-labeled 2-Oleolyl 1,3-disubstituted triglycerols was reported; assay type: ADME, organism-based; details: in vivo
Rattus norvegicus [6] = test: Distribution of radioactivity was determined in plasma at 30 min after intravenous administration of [125I]-labeled 2-oleoglycerol 1,3-Bis-[omega-(3-amino-2,4,6-triiodophenyl)alkanoates] in rats; assay type: ADME, organism-based; details: in vivo, 0.5 h
Rattus norvegicus [7] = test: Distribution of radioactivity was determined in lung at 24 hr after intravenous administration of [125I]-labeled 2-oleoglycerol 1,3-Bis-[omega-(3-amino-2,4,6-triiodophenyl)alkanoates] in rats; assay type: ADME, organism-based; details: in vivo
Rattus norvegicus [8] = test: Polyacrylamide Gel Electrophoresis (PAGE) to determined the concentration of stacking gel(SG) in rats after iv administration of [125I]-labeled 2-Oleolyl 1,3-disubstituted triglycerols was reported; assay type: ADME, organism-based; details: in vivo
Rattus norvegicus [9] = test: Distribution of radioactivity was determined in spleen at 48 hr after intravenous administration of 1,3-Disubstituted Triacylglycerols in rats; assay type: ADME, organism-based; details: in vivo
Rattus norvegicus [10] = test: Polyacrylamide Gel Electrophoresis (PAGE) to determined the concentration of below albumin(BA) in rats after iv administration of [125I]-labeled 2-Oleolyl 1,3-disubstituted triglycerols was reported; assay type: ADME, organism-based; details: in vivo
Rattus norvegicus [11] = test: Distribution of radioactivity was determined in kidney at 30 min after intravenous administration of [125I]-labeled 2-oleoglycerol 1,3-Bis-[omega-(3-amino-2,4,6-triiodophenyl)alkanoates] in rats; assay type: ADME, organism-based; details: in vivo, 0.5 h
Rattus norvegicus [12] = test: Analysis of lipid-soluble radioactivity in plasma 24 hour after iv administration of [125I]-labeled 2-Oleoyl 1,3-disubstituted Triacylglycerols and represented as % CHCl3/CH3OH from rat; assay type: ADME, organism-based; details: in vivo
Rattus norvegicus [13] = test: Distribution of radioactivity was determined in blood at 24 hr after intravenous administration of 1,3-Disubstituted Triacylglycerols in rats; assay type: ADME, organism-based; details: in vivo
Rattus norvegicus [14] = test: Analysis of lipid-soluble radioactivity in liver 24 hour after iv administration of [125I]-labeled 2-Oleoyl 1,3-disubstituted Triacylglycerols expressed as %parent compound (by TLC with authentic [125I]-labeled standard) from rat; assay type: ADME, organism-based; details: in vivo
Rattus norvegicus [15] = test: Polyacrylamide Gel Electrophoresis (PAGE) to determined the concentration of low density lipoprotein (LDL) in rats after iv administration of [125I]-labeled 2-Oleolyl 1,3-disubstituted triglycerols was reported; assay type: ADME, organism-based; details: in vivo
Rattus norvegicus [16] = test: Distribution of radioactivity was determined in heart at 24 after intravenous administration of [125I]-labeled 2-oleoglycerol 1,3-Bis-[omega-(3-amino-2,4,6-triiodophenyl)alkanoates] in rats; assay type: ADME, organism-based; details: in vivo
Rattus norvegicus [17] = test: Distribution of radioactivity was determined in spleen at 24 hr after intravenous administration of [125I]-labeled 2-oleoglycerol 1,3-Bis-[omega-(3-amino-2,4,6-triiodophenyl)alkanoates] in rats; assay type: ADME, organism-based; details: in vivo
Rattus norvegicus [18] = test: Distribution of radioactivity was determined in liver at 3h after intravenous administration of [125I]-labeled 2-oleoglycerol 1,3-Bis-[omega-(3-amino-2,4,6-triiodophenyl)alkanoates] in rats; assay type: ADME, organism-based; details: in vivo
Rattus norvegicus [19] = test: Distribution of radioactivity was determined in blood at 48 hr after intravenous administration of 1,3-Disubstituted Triacylglycerols in rats; assay type: ADME, organism-based; details: in vivo
Rattus norvegicus [20] = test: Distribution of radioactivity was determined in heart at 30 min after intravenous administration of [125I]-labeled 2-oleoglycerol 1,3-Bis-[omega-(3-amino-2,4,6-triiodophenyl)alkanoates] in rats; assay type: ADME, organism-based; details: in vivo, 0.5 h
Rattus norvegicus [21] = test: Distribution of radioactivity was determined in spleen at 3h after intravenous administration of [125I]-labeled 2-oleoglycerol 1,3-Bis-[omega-(3-amino-2,4,6-triiodophenyl)alkanoates] in rats; assay type: ADME, organism-based; details: in vivo
Rattus norvegicus [22] = test: Distribution of radioactivity was determined in lung at 30 min after intravenous administration of [125I]-labeled 2-oleoglycerol 1,3-Bis-[omega-(3-amino-2,4,6-triiodophenyl)alkanoates] in rats; assay type: ADME, organism-based; details: in vivo, 0.5 h
Rattus norvegicus [23] = test: Analysis of lipid-soluble radioactivity in plasma 0.5 hour after iv administration of [125I]-labeled 2-Oleoyl 1,3-disubstituted Triacylglycerols and represented as % CHCl3/CH3OH from rat; assay type: ADME, organism-based; details: in vivo
Rattus norvegicus [24] = test: Distribution of radioactivity was determined in blood at 24 hr after intravenous administration of [125I]-labeled 2-oleoglycerol 1,3-Bis-[omega-(3-amino-2,4,6-triiodophenyl)alkanoates] in rats; assay type: ADME, organism-based; details: in vivo
Rattus norvegicus [25] = test: Distribution of radioactivity was determined in liver at 30 min after intravenous administration of [125I]-labeled 2-oleoglycerol 1,3-Bis-[omega-(3-amino-2,4,6-triiodophenyl)alkanoates] in rats; assay type: ADME, organism-based; details: in vivo, 0.5 h
Rattus norvegicus [26] = test: Distribution of radioactivity was determined in lung at 3h after intravenous administration of [125I]-labeled 2-oleoglycerol 1,3-Bis-[omega-(3-amino-2,4,6-triiodophenyl)alkanoates] in rats; assay type: ADME, organism-based; details: in vivo
Rattus norvegicus [27] = test: Distribution of radioactivity was determined in thyroid at 24 hr after intravenous administration of [125I]-labeled 2-oleoglycerol 1,3-Bis-[omega-(3-amino-2,4,6-triiodophenyl)alkanoates] in rats; assay type: ADME, organism-based, Thyroid gland; details: in vivo
Rattus norvegicus [28] = test: Distribution of radioactivity was determined in liver at 24 hr after intravenous administration of [125I]-labeled 2-oleoglycerol 1,3-Bis-[omega-(3-amino-2,4,6-triiodophenyl)alkanoates] in rats; assay type: ADME, organism-based; details: in vivo
Rattus norvegicus [29] = test: Distribution of radioactivity was determined in blood at 30 min after intravenous administration of 1,3-Disubstituted Triacylglycerols in rats; assay type: ADME, organism-based; details: in vivo, 0.5 h
Rattus norvegicus [30] = test: Distribution of radioactivity was determined in spleen at 3h after intravenous administration of 1,3-Disubstituted Triacylglycerols in rats; assay type: ADME, organism-based; details: in vivo
Rattus norvegicus [31] = test: Distribution of radioactivity was determined in liver at 3h after intravenous administration of 1,3-Disubstituted Triacylglycerols in rats; assay type: ADME, organism-based; details: in vivo
Rattus norvegicus [32] = test: Distribution of radioactivity was determined in liver at 48 hr after intravenous administration of 1,3-Disubstituted Triacylglycerols in rats; assay type: ADME, organism-based; details: in vivo
Rattus norvegicus [33] = test: Distribution of radioactivity was determined in spleen at 30 min after intravenous administration of 1,3-Disubstituted Triacylglycerols in rats; assay type: ADME, organism-based; details: in vivo, 0.5 h
Rattus norvegicus [34] = test: Distribution of radioactivity was determined in spleen at 24 hr after intravenous administration of 1,3-Disubstituted Triacylglycerols in rats; assay type: ADME, organism-based; details: in vivo
Rattus norvegicus [35] = test: Analysis of lipid-soluble radioactivity in plasma 0.5 hour after iv administration of [125I]-labeled 2-Oleoyl 1,3-disubstituted Triacylglycerols expressed as %parent compound (by TLC with authentic [125I]-labeled standard) from rat; assay type: ADME, organism-based; details: in vivo

SMILES	Lipid-soluble radioactivity (Rattus norvegicus [1])	Distribution of radioactivity (Rattus norvegicus [2])	Radioactivity per organ (Rattus norvegicus [3])	Distribution of radioactivity (Rattus norvegicus [4])	Radioactivity (Rattus norvegicus [5])	Distribution of radioactivity (Rattus norvegicus [6])	Distribution of radioactivity (Rattus norvegicus [7])	Radioactivity (Rattus norvegicus [8])	Distribution of radioactivity (Rattus norvegicus [9])	Radioactivity (Rattus norvegicus [10])	Distribution of radioactivity (Rattus norvegicus [11])	Lipid-soluble radioactivity (Rattus norvegicus [12])	Distribution of radioactivity (Rattus norvegicus [13])	Lipid-soluble radioactivity (Rattus norvegicus [14])	Radioactivity (Rattus norvegicus [15])	Distribution of radioactivity (Rattus norvegicus [16])	Distribution of radioactivity (Rattus norvegicus [17])	Distribution of radioactivity (Rattus norvegicus [18])	Distribution of radioactivity (Rattus norvegicus [19])	Distribution of radioactivity (Rattus norvegicus [20])	other results
CCCCCCCC/C=C/CCCCCCCC(=O)OC(COC(=O)Cc1c(I)cc(I)c(N)c1I)COC(=O)Cc1c(I)cc(I)c(N)c1I	59.5	72.5 % dose/organ	69.8 % dose/organ	0.07 % dose/g	0.7%	1.25 % dose/g	0.52 % dose/g	95.7%	16.6 % dose per organ	1.1%	0.1 % dose/g	24.4	0.2 % dose/organ	87.5	0.6%	0.03 % dose/g	24.2 % dose/g	10.3 % dose/g	0.1 % dose per organ	0.36 % dose/g	Distribution of radioactivity (Rattus norvegicus [21]): 23.6 % dose/g; Distribution of radioactivity (Rattus norvegicus [22]): 0.72 % dose/g; Lipid-soluble radioactivity (Rattus norvegicus [23]): 54.2 and 86.3; Distribution of radioactivity (Rattus norvegicus [24]): 0.01 % dose/g; Distribution of radioactivity (Rattus norvegicus [25]): 7.9 % dose/g; Distribution of radioactivity (Rattus norvegicus [26]): 0.38 % dose/g; Distribution of radioactivity (Rattus norvegicus [27]): 2.58 % dose/g; Distribution of radioactivity (Rattus norvegicus [28]): 9.09 % dose/g; Distribution of radioactivity (Rattus norvegicus [29]): 7.6 % dose/organ; Distribution of radioactivity (Rattus norvegicus [30]): 14.5 % dose/organ; Distribution of radioactivity (Rattus norvegicus [31]): 79 % dose/organ; Distribution of radioactivity (Rattus norvegicus [32]): 59.7 % dose/organ; Distribution of radioactivity (Rattus norvegicus [33]): 12 % dose/organ; Distribution of radioactivity (Rattus norvegicus [34]): 12.2 % dose/organ
CCCCCCCC/C=C/CCCCCCCC(=O)OC(COC(=O)CCCCCc1c(I)cc(I)c(N)c1I)COC(=O)CCCCCc1c(I)cc(I)c(N)c1I	90.3	34.9 % dose/organ	66.8 % dose/organ	0.25 % dose/g	7%	0.65 % dose/g	0.26 % dose/g	72.6%	3.1 % dose per organ	0.6%	0.09 % dose/g	80.6	1.1 % dose/organ	97.9	4.8%	0.07 % dose/g	10.4 % dose/g	8.74 % dose/g	0.8 % dose per organ	0.23 % dose/g	Lipid-soluble radioactivity (Rattus norvegicus [35]): 82.2; Distribution of radioactivity (Rattus norvegicus [21]): 23.5 % dose/g; Distribution of radioactivity (Rattus norvegicus [22]): 0.26 % dose/g; Lipid-soluble radioactivity (Rattus norvegicus [23]): 89.9; Distribution of radioactivity (Rattus norvegicus [24]): 0.1 % dose/g; Distribution of radioactivity (Rattus norvegicus [25]): 7.01 % dose/g; Distribution of radioactivity (Rattus norvegicus [26]): 0.21 % dose/g; Distribution of radioactivity (Rattus norvegicus [27]): 5.13 % dose/g; Distribution of radioactivity (Rattus norvegicus [28]): 4.2 % dose/g; Distribution of radioactivity (Rattus norvegicus [29]): 4.8 % dose/organ; Distribution of radioactivity (Rattus norvegicus [30]): 11.3 % dose/organ; Distribution of radioactivity (Rattus norvegicus [31]): 66 % dose/organ; Distribution of radioactivity (Rattus norvegicus [32]): 22.4 % dose/organ; Distribution of radioactivity (Rattus norvegicus [33]): 13.9 % dose/organ; Distribution of radioactivity (Rattus norvegicus [34]): 5.8 % dose/organ
